Publication PMC6273847, “Protein Tyrosine Phosphatase 1B Inhibitors from the Stems of Akebia quinata” (Molecules, 2016)
Like-named read-outs stand apart in the source and are kept apart here.

Columns and labels:
MCF7/TAMR = assay: Cytotoxic activity against tamoxifen-resistant MCF7 cells
MCF7 = assay: Cytotoxic activity against MCF7 breast cancer cells
[1] = target: T1, PTP1B (human, recombinant) (Homo sapiens, UniProt P18031); assay: PTP1B enzyme assay (p-NPP substrate); format: biochemical; details: for IC50: mean ± SD of three replicates, 4 mM p-NPP, 37 °C, 30 min; for PTP1B inhibition mode (Lineweaver-Burk plot): p-NPP 1, 2, 4, 8 mM, compound 1, 2, 5, 10 μM
T1 construct: purchased BIOMOL International LP (USA)
T1 sequence (P18031 1-435): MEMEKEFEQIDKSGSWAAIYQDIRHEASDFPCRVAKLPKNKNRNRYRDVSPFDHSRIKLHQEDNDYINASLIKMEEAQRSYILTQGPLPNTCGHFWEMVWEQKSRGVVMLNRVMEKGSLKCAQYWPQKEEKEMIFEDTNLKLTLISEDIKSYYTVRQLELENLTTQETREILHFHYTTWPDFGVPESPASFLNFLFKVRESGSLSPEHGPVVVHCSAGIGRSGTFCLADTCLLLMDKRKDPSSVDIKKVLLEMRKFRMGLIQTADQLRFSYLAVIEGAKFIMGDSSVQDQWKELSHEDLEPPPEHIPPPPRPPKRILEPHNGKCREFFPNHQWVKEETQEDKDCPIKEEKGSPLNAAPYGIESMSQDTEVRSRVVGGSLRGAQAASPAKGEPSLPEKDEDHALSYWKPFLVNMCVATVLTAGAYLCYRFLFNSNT
Description: PTP1B (human, recombinant) was purchased from BIOMOL International LP (USA) and the enzyme activity was measured using p-nitrophenyl phosphate (p-NPP) (N1891, Sigma-Aldrich, St. Louis, MO, USA) as a substrate. In general, the assay was performed in 96-well plate containing 4 mM p-NPP and PTP1B (0.05–0.1 μg) in enzyme buffer (50 mM citrate (pH 6.0), 0.1 M NaCl, 1 mM dithiothreitol (DTT), and 1 mM EDTA) with or without test compounds. The assay was also carried out in the absence of PTP1B enzyme to exclude the effect of test compounds on the measurement absorbance. Following incubation at 37 °C for 30 min, the reaction was terminated with 10 M NaOH solution. The amount of produced p-nitrophenol was estimated by measuring the absorbance at 405 nm using an absorbance microplate reader (VersaMax™, Randor, PA, USA). For the enzyme kinetic determination, Lineweaver-Burk was used to determine the inhibition type of PTP1B. On the basis of Lineweaver-Burk double reciprocal plots, the PTP1B inhibition mode was obtained at various concentrations of p-NPP substrate (1, 2, 4, and 8 mM) without or with different test compound concentrations (1, 2, 5, and 10 μM).

MDA-MB-231 = assay: Cytotoxic activity against MDA-MB-231 breast cancer cells
[2] = system: MCF7, MDA-MB-231 and MCF7/TAMR breast cancer cell lines
MCF-7 cells = assay: Flow cytometric analysis of cell apoptosis (ApopNexin FITC / PI); format: cell-based
Description: An ApopNexin™ FITC kit (Millipore) was used for the flow cytometric analysis. After MCF-7 cells were seeded on 6-well plates and incubated for 24 h, the cells were treated with test compounds and incubated for 12 h. The detached cells were collected and resuspended to wash the cells twice with PBS. The cells were suspended in cold binding buffer (10 mM Hepes/NaOH pH 7.4, 140 mM NaCl, 2.5 mM CaCl2) at a concentration of 10^6 cells/mL. Annexin conjugate ApopNexin™ FITC and propidium iodide (PI) were added to the cell suspension, which was incubated for 15 min in the dark. Then, the double-stained cells were immediately analyzed using a flow cytometer (BD bioscience, San Jose, CA, USA).

[3] = Homo sapiens, MCF7, read-out: Cytotoxic Activities (IC50, μM) MCF7/TAMR
[4] = Homo sapiens, MCF7, read-out: Cytotoxic Activities (IC50, μM) MCF7
[5] = Homo sapiens, MDA-MB-231, read-out: Cytotoxic Activities (IC50, μM) MDA-MB-231

`CC1(C)CC[C@]2(C(=O)O)CC[C@]3(C)C(=CCC4[C@@]5(C)CCC(O[C@@H]6OC[C@H](O[C@@H]7O[C@H](CO)[C@@H](O)[C@H](O)[C@H]7O)[C@H](O)[C@H]6O)C(C)(C)C5CC[C@]43C)C2C1` (stereo partly drawn) [Compound 8] showed an IC50 (MCF7/TAMR; [3]) of 1.78 ± 0.13 µM, an IC50 (MCF7; [4]) of 1.29 ± 0.09 µM and an IC50 [1] of 21.8 ± 4.74 µM. It also gave an IC50 (MDA-MB-231; [5]) of 1.55 ± 0.21 µM.

For `CC(CO)c1cc2c(c(O)c1O)[C@@]1(C)CCCC(C)(C)C1CC2=O` (stereo partly drawn) [Compound 2, cyrtophyllones B], the IC50 (MCF7/TAMR; [3]) was 13.4 ± 1.26 µM, the IC50 (MCF7; [4]) was 7.91 ± 0.39 µM and the IC50 [1] was 6.77 ± 1.28 µM. The IC50 (MDA-MB-231; [5]) was 4.04 ± 0.8 µM and the “cytotoxic activities against breast cancer lines, IC50 values ranging over the cell lines” value [2] was 0.84 ± 0.17 to 13.42 ± 1.26.

`CC1=C(C)C2=CC(=O)c3c(O)c4c(c(O)c3[C@@]2(C)CC1)O[C@@H](C)C4` [Compound 3, uncinatone] showed an IC50 (MCF7/TAMR; [3]) of 7.73 ± 1.02 µM, an IC50 (MCF7; [4]) of 6.02 ± 2.32 µM and an IC50 [1] of 5.41 ± 0.68 µM. For the same compound, the “PTP1B inhibition mode (Lineweaver-Burk plot)” value [1] was “noncompetitive”, the IC50 (MDA-MB-231; [5]) was 5.14 ± 1.55 µM and the “cytotoxic activities against breast cancer lines, IC50 values ranging over the cell lines” value [2] was 0.84 ± 0.17 to 13.42 ± 1.26.

`CC1(C)CC[C@]2(C(=O)O)CC[C@]3(C)C(=CCC4[C@@]5(C)CCC(O[C@@H]6OC[C@H](O)[C@H](O)[C@H]6O)C(C)(C)C5CC[C@]43C)C2C1` (stereo partly drawn) [Compound 6, 3-O-α-L-arabinopyranosyl olean-12-en-28-oic acid] gave an IC50 (MCF7/TAMR; [3]) of 1.39 ± 0.18 µM, an IC50 (MCF7; [4]) of 1.11 ± 0.04 µM and an IC50 [1] of 4.08 ± 1.09 µM. For the same compound, the “PTP1B inhibition mode (Lineweaver-Burk plot)” value [1] was “noncompetitive”, the “percentage of apoptotic cancer cells (higher right field, Annexin FITC/PI)” value (MCF-7 cells; 10 μM, 12 h) was 89.47% and the viability at 10 µM (MCF-7 cells; Homo sapiens, MCF7, 12 h, read-out: percentage of cells in lower left field (viable; low Annexin V and PI staining)) was 0.75%. It also gave an IC50 (MDA-MB-231; [5]) of 0.84 ± 0.17 µM.

`CC/C(=C(\c1ccccc1)c1ccc(OCCN(C)C)cc1)c1ccccc1` [Tamoxifen, tamoxifen, reference compound] was tested, and the IC50 (MCF7/TAMR; [3]) was 25.4 ± 1.79 µM, the IC50 (MCF7; [4]) was 8.01 ± 1.81 µM and the IC50 (MDA-MB-231; [5]) was 10.1 ± 1.51 µM.

In the case of “4-hydroxy tamoxifen [4-OH tamoxifen, reference compound]”, the IC50 (MCF7/TAMR; read-out: Cytotoxic Activities (IC50, μM) MCF7/TAMR, MCF7/TAMR, mean ± SD of three replicates) is reported as 13.6 ± 1.25 µM, the IC50 (MCF7; read-out: Cytotoxic Activities (IC50, μM) MCF7, MCF7, mean ± SD of three replicates) is reported as 2.11 ± 0.39 µM and the IC50 (MDA-MB-231; read-out: Cytotoxic Activities (IC50, μM) MDA-MB-231, MDA-MB-231, mean ± SD of three replicates) is reported as 3.1 ± 0.31 µM.

`CC1(C)CC[C@]2(C(=O)O)CC[C@]3(C)C(=CCC4[C@@]5(C)C[C@@H](O)[C@@H](O)[C@](C)(CO)C5CC[C@]43C)C2C1` (stereo partly drawn) [Compound 11, 2α,3α,23-trihydroxyoleane-12-en-28-oic acid] showed an IC50 (MCF7; [4]) of over 40 µM and an IC50 [1] of 7.78 ± 1.43 µM.
